Measurements reported in patent publication US20140274969A1 (priority 2013, published 2014).
Where two headings read alike, the source gives them in different places.

Columns and labels:
[1] = Experimental: Subjects were evaluated for adverse events daily while in hospital and at each subsequent clinical evaluation. All serious adverse events (Table 4) were reviewed promptly by a safety monitoring board composed of clinicians and clinician researchers not otherwise involved in this study. A summary of all adverse events was reviewed every 6 months.
The model assumed that any change associated with treatment group was constant over these time points. An interaction term between treatment and injury type was included to allow for the possibility that changes associated with treatment group differed among motor-complete and motor-incomplete injured subjects. ASIA sensory scores were similarly evaluated. ASIA motor, pin-prick and light scores were evaluated by the Shapiro-Wilk normality test and were consistent with a normal distribution. Functional recovery data were compared over all data points. Adverse events were categorized by system and mean numbers of events per patient were compared within each system by ANOVA. All statistical tests were two-tailed (a=0.05). […] The Student t-test was then used to estimate the between group difference that this study was powered to detect with power=0.8 and a=0.05.

[2] = system: acute traumatic SCI; assay: Functional recovery scales (SCIM, FIM, London Handicap, SF36) after SCI; type: in vivo, human; conditions: 6 to 52 weeks after injury
Experimental: Clin. Exp. Pharmacol. Physiol. 1:299-308). […] Functional outcome was assessed using the Spinal Cord Independence Measure, Functional Independence Measure, London Handicap scale, and Short Form 36 questionnaires administered at 6 weeks, 12 weeks, 26 weeks, and 52 weeks after injury. […] ASIA sensory scores were similarly evaluated. […] Functional recovery data were compared over all data points. […] All statistical tests were two-tailed (a=0.05).

[3] = cited from earlier work
[4] = system: mixed neuronal and glial spinal cord cultures; conditions: 20 nM, 30 minutes before 24-hour excitotoxin exposure; cited from earlier work
[5] = system: SCI; conditions: mice; two 50 mg/kg i.p. doses then three 25 mg/kg doses at 24 h intervals; cited from earlier work
[6] = system: SCI; conditions: rats; 90 mg/kg immediately after SCI then 45 mg/kg every 12 h; cited from earlier work
[7] = system: hypoxic-ischemic brain injury; conditions: mice; s.c. 135 mg/kg then two 68 mg/kg doses at 24-h intervals; cited from earlier work
[8] = system: contusive SCI; conditions: rats; 90 mg/kg i.p. or via jugular cannula, then two 45 mg/kg i.p. at 12-h intervals; cited from earlier work
[9] = system: amyotrophic lateral sclerosis; conditions: human; cited from earlier work
[10] = High dose (800 mg tapered by 100 mg each 12 h to 400 mg, 7 days)
[11] = Low dose (200 mg IV twice daily, 7 days)
[12] = long-term administration, global reports

CN(C)c1ccc(O)c2c1C[C@H]1C[C@H]3[C@H](N(C)C)C(O)=C(C(N)=O)C(=O)[C@@]3(O)C(O)=C1C2=O [minocycline, (2E,4S,4aR,5aS,12aR)-2-(amino-hydroxy-methylidene)-4,7-bis(dimethylamino)-10,11,12a-trihydroxy-4-a,5,5a,6-tetrahydro-4H-tetracene-1,3,12-trione]
Autonomic dysreflexia: # of events [1, 10]: 1
Autonomic dysreflexia: # of subjects [1, 10]: 1
Cardiac: # of events [1, 10]: 14
Cardiac: # of subjects [1, 10]: 9
Deep venous thrombosis: # of events [1, 10]: 1
Deep venous thrombosis: # of subjects [1, 10]: 1
Deep venous thrombosis: events/subject [1, 10]: 0.06
Endocrine: # of events [1, 10]: 0
Endocrine: # of subjects [1, 10]: 0
Endocrine: events/subject [1, 10]: 0
Gastrointestinal: # of events [1, 10]: 36
Gastrointestinal: # of subjects [1, 10]: 12
Gastrointestinal: events/subject [1, 10]: 1.88
Genito-urinary: # of events [1, 10]: 7
Genito-urinary: # of subjects [1, 10]: 5
Genito-urinary: events/subject [1, 10]: 0.44
Haematological: # of events [1, 10]: 9
Haematological: # of subjects [1, 10]: 6
Haematological: events/subject [1, 10]: 0.63
Infectious: # of events [1, 10]: 28
Infectious: # of subjects [1, 10]: 11
Infectious: events/subject [1, 10]: 1.38
Integumentary: # of events [1, 10]: 21
Integumentary: # of subjects [1, 10]: 11
Integumentary: events/subject [1, 10]: 1.13
Musculoskeletal: # of events [1, 10]: 14
Musculoskeletal: # of subjects [1, 10]: 13
Musculoskeletal: events/subject [1, 10]: 0.75
Neurological: # of events [1, 10]: 16
Neurological: # of subjects [1, 10]: 10
Neurological: events/subject [1, 10]: 0.56
Other: # of events [1, 10]: 19
Other: # of subjects [1, 10]: 11
Pain: # of events [1, 10]: 31
Pain: # of subjects [1, 10]: 14
Psychiatric: # of events [1, 10]: 18
Psychiatric: # of subjects [1, 10]: 8
Psychiatric: events/subject [1, 10]: 1.13
Respiratory: # of events [1, 10]: 13
Respiratory: # of subjects [1, 10]: 9
Respiratory: events/subject [1, 10]: 0.81
Serious adverse events: # of events [1, 10]: 1
Serious adverse events: # of subjects [1, 10]: 1
Serious adverse events: events/subject [1, 10]: 0.06
Autonomic dysreflexia: # of events [1, 11]: 0
Autonomic dysreflexia: # of subjects [1, 11]: 0
Cardiac: # of events [1, 11]: 5
Cardiac: # of subjects [1, 11]: 4
Deep venous thrombosis: # of events [1, 11]: 0
Deep venous thrombosis: # of subjects [1, 11]: 0
Deep venous thrombosis: events/subject [1, 11]: 0
Endocrine: # of events [1, 11]: 1
Endocrine: # of subjects [1, 11]: 1
Endocrine: events/subject [1, 11]: 0.2
Gastrointestinal: # of events [1, 11]: 12
Gastrointestinal: # of subjects [1, 11]: 5
Gastrointestinal: events/subject [1, 11]: 2.2
Genito-urinary: # of events [1, 11]: 0
Genito-urinary: # of subjects [1, 11]: 0
Genito-urinary: events/subject [1, 11]: 0
Haematological: # of events [1, 11]: 2
Haematological: # of subjects [1, 11]: 2
Haematological: events/subject [1, 11]: 0.4
Infectious: # of events [1, 11]: 12
Infectious: # of subjects [1, 11]: 4
Infectious: events/subject [1, 11]: 1.8
Integumentary: # of events [1, 11]: 5
Integumentary: # of subjects [1, 11]: 4
Integumentary: events/subject [1, 11]: 1.0
Musculoskeletal: # of events [1, 11]: 4
Musculoskeletal: # of subjects [1, 11]: 4
Musculoskeletal: events/subject [1, 11]: 0.6
Neurological: # of events [1, 11]: 11
Neurological: # of subjects [1, 11]: 5
Neurological: events/subject [1, 11]: 1.6
Other: # of events [1, 11]: 13
Other: # of subjects [1, 11]: 5
Pain: # of events [1, 11]: 10
Pain: # of subjects [1, 11]: 5
Psychiatric: # of events [1, 11]: 8
Psychiatric: # of subjects [1, 11]: 4
Psychiatric: events/subject [1, 11]: 1.2
Respiratory: # of events [1, 11]: 5
Respiratory: # of subjects [1, 11]: 4
Respiratory: events/subject [1, 11]: 1.0
Serious adverse events: # of events [1, 11]: 1
Serious adverse events: # of subjects [1, 11]: 1
Serious adverse events: events/subject [1, 11]: 0.2
adverse events among placebo, low-dose and high-dose groups ([1]; low-dose (200 mg) or high-dose (400 mg) vs placebo): did not vary significantly
functional outcomes (SCIM, FIM, London Handicap Scale, Short Form 36) vs placebo [2]: greater in the minocycline-treated group but the differences were not statistically significant
serum concentrations well tolerated ([3]; humans): up to 6.2 mg/L
cases of drug induced lupus [3, 12]: 33 cases
cases of hypersensitivity reaction [3, 12]: 19 cases
cases of serum sickness-like reaction [3, 12]: 11 cases
cases of single organ dysfunction [3, 12]: 40 cases
IL-1β and NO metabolite production [4]: reduced
microglia proliferation [4]: Inhibition
neuronal cell survival [4]: more than doubled
recovery from SCI [5]: facilitated significant recovery
functional motor control in the hind limbs [6]: improved
size of lesions on spinal cords [6]: reduced
effects of hypoxic-ischemic brain injury [7]: significantly exacerbated
behavioural or histological improvements or recovery from SCI [8]: neither route for minocycline administration resulted in any behavioural or histological improvements
clinical outcome in amyotrophic lateral sclerosis [9]: clinical deterioration
